From PubChem BioAssay AID493040 (Abbott Labs, 2011) come the findings set out here.

What all share (test): PubChem AID 493040
Assay [1] deals with Mitogen-activated protein kinase 14 (Homo sapiens) (UniProt Q16539). The following applies: kinase panel binding, pKi; MAPK14.
Assay [2] concerns the target Serine/threonine-protein kinase Sgk2 (Homo sapiens) (UniProt Q9HBY8). The following applies: kinase panel binding, pKi; SGK.
The target in assay [3] is Cell division cycle 7-related protein kinase (Homo sapiens) (UniProt O00311). The following applies: kinase panel binding, pKi; CDC7.
Cell division cycle 7-related protein kinase (Homo sapiens), sequence (O00311 whole entry, looked up): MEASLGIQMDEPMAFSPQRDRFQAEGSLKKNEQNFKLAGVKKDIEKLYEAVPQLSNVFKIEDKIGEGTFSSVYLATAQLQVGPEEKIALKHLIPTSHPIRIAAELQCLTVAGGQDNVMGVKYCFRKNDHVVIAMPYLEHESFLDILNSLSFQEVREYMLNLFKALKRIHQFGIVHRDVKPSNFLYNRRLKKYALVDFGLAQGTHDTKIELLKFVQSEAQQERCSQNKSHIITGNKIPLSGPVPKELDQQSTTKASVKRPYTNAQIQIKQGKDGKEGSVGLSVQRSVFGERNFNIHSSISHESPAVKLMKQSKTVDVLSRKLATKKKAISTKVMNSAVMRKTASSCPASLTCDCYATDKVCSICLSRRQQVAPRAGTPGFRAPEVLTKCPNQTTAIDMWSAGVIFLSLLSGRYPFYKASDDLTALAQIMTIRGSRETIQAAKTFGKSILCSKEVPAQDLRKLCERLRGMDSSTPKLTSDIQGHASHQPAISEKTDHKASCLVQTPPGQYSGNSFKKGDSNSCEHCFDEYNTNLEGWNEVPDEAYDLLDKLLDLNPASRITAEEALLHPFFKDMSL
Assay [4] has as its target Cyclin-dependent kinase 2 (Homo sapiens) (UniProt P24941). The following applies: kinase panel binding, pKi; CDK2.
Assay [5] addresses Rho-associated protein kinase 2 (Homo sapiens) (UniProt O75116). To be noted: kinase panel binding, pKi; ROCK2.
The target of assay [6] is Epidermal growth factor receptor (Homo sapiens) (UniProt P00533). The following applies: kinase panel binding, pKi; EGFR.
Epidermal growth factor receptor (Homo sapiens), sequence (P00533 whole entry, looked up): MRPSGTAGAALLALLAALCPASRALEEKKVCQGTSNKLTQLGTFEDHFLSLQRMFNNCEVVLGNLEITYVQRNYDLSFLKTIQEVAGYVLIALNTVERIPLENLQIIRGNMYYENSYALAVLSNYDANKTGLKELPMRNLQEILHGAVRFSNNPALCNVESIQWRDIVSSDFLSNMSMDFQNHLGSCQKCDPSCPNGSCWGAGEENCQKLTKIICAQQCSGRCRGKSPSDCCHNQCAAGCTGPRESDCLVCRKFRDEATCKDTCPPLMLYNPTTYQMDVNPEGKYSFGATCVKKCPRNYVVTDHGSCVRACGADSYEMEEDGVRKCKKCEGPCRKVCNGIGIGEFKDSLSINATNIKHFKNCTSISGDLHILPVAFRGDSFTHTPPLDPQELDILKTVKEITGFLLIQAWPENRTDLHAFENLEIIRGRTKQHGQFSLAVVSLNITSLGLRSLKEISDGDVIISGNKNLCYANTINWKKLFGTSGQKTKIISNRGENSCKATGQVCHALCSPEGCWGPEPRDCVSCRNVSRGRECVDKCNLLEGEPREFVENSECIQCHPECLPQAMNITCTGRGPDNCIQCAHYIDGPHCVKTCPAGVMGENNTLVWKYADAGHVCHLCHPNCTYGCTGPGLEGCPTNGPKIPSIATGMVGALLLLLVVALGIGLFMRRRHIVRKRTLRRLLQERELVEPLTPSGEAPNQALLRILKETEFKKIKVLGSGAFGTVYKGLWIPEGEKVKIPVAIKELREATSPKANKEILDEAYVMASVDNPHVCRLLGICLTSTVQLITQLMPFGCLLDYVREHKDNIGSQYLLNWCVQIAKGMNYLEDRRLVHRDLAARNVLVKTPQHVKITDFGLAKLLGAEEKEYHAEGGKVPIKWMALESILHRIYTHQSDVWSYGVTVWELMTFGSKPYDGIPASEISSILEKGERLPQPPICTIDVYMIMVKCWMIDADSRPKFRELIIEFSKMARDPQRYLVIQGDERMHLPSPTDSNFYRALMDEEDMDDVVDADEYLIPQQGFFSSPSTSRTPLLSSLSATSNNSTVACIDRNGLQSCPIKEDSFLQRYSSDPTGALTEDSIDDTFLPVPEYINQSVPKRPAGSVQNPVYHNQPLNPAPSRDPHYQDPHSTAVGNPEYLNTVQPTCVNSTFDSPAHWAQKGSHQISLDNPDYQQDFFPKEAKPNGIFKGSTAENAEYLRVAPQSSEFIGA
Assay [7] concerns the target Serine/threonine-protein kinase PLK3 (Homo sapiens) (UniProt Q9H4B4). To be noted: kinase panel binding, pKi.
The target of assay [8] is Cyclin-dependent kinase 5 (Homo sapiens) (UniProt Q00535). To be noted: kinase panel binding, pKi; CDK5.
Cyclin-dependent kinase 5 (Homo sapiens), sequence (Q00535 whole entry, looked up): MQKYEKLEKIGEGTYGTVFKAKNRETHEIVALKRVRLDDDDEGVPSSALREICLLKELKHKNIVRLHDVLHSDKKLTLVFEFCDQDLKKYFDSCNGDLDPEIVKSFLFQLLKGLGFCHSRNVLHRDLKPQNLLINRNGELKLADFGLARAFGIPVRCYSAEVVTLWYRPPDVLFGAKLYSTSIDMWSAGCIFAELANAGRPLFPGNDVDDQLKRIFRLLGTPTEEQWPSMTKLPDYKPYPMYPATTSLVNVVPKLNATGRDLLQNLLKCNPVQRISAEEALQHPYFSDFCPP

pKi: −log10 of the molar value. Calls of active or inactive are those of the source. The rule behind the calls is not given here.

Mitogen-activated protein kinase 14 (Homo sapiens), sequence (Q16539 whole entry, looked up): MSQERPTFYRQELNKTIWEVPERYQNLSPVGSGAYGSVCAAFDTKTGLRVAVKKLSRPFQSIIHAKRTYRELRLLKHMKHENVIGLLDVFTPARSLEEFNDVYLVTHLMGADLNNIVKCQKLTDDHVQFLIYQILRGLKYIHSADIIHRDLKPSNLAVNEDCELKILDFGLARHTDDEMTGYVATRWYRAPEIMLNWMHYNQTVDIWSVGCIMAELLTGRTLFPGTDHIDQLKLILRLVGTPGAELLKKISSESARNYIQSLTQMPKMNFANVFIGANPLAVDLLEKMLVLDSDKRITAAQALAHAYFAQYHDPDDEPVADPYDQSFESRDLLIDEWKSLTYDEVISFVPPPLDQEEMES
Rho-associated protein kinase 2 (Homo sapiens), sequence (O75116 whole entry, looked up): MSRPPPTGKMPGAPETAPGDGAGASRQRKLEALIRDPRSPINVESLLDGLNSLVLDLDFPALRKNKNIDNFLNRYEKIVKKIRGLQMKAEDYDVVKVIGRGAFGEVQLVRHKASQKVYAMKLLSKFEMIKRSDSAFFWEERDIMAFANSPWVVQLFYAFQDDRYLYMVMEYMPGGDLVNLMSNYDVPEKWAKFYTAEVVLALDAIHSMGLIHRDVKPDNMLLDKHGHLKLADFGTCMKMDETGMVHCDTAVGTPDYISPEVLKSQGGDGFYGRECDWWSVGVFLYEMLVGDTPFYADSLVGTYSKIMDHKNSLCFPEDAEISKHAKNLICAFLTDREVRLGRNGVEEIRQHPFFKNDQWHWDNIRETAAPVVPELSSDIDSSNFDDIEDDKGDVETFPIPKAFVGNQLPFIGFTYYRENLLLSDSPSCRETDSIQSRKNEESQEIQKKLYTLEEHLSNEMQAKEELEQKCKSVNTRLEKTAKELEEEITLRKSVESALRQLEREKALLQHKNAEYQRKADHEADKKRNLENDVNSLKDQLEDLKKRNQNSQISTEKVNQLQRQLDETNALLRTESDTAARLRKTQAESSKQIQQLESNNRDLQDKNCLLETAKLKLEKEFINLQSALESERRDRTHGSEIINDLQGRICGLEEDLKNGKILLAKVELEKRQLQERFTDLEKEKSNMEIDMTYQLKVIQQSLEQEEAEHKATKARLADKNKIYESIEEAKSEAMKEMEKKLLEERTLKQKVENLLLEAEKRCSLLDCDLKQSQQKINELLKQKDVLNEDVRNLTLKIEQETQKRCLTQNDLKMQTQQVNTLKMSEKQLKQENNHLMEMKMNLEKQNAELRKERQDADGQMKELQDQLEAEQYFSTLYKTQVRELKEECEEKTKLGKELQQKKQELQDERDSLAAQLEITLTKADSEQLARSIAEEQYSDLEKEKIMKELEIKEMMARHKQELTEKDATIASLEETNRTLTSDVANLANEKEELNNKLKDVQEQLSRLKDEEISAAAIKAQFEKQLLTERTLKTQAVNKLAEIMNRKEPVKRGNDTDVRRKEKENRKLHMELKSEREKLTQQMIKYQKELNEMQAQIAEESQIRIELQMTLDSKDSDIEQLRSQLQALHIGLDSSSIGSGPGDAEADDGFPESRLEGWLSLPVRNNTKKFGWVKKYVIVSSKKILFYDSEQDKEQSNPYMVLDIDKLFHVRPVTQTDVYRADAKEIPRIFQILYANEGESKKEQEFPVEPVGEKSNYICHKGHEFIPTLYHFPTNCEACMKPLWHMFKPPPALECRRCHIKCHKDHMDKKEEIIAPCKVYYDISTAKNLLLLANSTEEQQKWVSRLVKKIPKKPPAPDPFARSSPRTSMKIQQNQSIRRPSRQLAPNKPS
Serine/threonine-protein kinase Sgk2 (Homo sapiens), sequence (Q9HBY8 whole entry, looked up): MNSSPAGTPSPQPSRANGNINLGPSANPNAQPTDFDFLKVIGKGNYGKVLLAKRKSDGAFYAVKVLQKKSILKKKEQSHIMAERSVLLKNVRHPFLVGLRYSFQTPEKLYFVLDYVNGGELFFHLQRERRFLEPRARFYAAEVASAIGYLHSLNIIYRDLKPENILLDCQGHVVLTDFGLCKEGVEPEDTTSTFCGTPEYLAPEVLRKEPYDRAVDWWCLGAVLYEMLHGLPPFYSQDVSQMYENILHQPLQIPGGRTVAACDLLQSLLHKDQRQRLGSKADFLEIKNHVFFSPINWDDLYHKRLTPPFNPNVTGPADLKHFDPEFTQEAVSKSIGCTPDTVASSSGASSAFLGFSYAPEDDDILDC
Serine/threonine-protein kinase PLK3 (Homo sapiens), sequence (Q9H4B4 whole entry, looked up): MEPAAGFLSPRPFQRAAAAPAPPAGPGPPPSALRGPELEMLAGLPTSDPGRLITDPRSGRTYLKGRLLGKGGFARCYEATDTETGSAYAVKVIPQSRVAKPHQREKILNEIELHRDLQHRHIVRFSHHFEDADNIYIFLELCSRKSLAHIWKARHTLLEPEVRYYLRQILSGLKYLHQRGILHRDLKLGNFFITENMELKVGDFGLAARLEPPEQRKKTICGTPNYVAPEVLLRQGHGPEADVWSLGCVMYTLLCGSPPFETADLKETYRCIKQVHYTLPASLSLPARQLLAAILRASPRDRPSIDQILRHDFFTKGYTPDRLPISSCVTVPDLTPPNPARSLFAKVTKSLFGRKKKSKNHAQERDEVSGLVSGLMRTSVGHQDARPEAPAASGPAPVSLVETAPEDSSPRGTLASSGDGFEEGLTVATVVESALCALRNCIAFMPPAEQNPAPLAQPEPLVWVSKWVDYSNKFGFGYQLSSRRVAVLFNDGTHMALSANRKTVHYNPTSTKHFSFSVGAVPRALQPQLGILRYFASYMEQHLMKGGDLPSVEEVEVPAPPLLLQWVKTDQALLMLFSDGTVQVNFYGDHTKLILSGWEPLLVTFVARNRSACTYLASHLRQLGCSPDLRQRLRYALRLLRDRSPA

For the compound `CC(=O)n1ncc2cc(N)ccc21`, the pKi in assay [1] is 5.10.

Regarding `O=C(Nc1ccc(CO)cc1)c1cnn2c(-c3ccccc3)ccnc12`, the Ki in assay [2] was > 10 µM (inactive). Turning to `COc1cc2c(Oc3ccc4[nH]c(C)cc4c3F)ncnc2cc1OCCCN1CCCC1`, the Ki in assay [2] was > 10 µM (inactive). `O=S(=O)(Nc1ccccn1)c1ccc(N=Cc2c(O)[nH]c3ccc4ncsc4c23)cc1`: in assay [2], the negative logarithm of the Ki (pKi) was 7.80. Take `CN(C)c1ccc(-c2c(-c3ccc4[nH]nc(N)c4c3)nnn2Cc2ccccc2)cc1`: the pKi in assay [3] is 9.40; in assay [4] it was 6.90; in assay [5], 7.70. Consider `NC(=O)c1cccc2[nH]c(-c3cccc(NCCN4CCCC4)n3)nc12`, for which the Ki in assay [2] was > 10 µM (inactive). Consider `CCn1c(-c2nonc2N)nc2cnc(Oc3cccc(NC(=O)c4ccc(OCCN5CCOCC5)cc4)c3)cc21`, for which the pKi in assay [4] is 6.10; in assay [2] it was 6.70. Consider `CC(C)CC(NC(=O)c1cccc(-n2nc(C(C)(C)C)cc2NC(=O)Nc2cccc3ccccc23)c1)C(N)=O` (stereo unspecified), for which, in assay [1], the pKi was 6.10.

`Oc1ccc(-c2nc(-c3ccc(F)cc3)c(-c3ccncc3)[nH]2)cc1`: the Ki in assay [5] is > 3980 nM (inactive); in assay [2], > 6.31 µM (inactive).

For the compound `CCCCCCCCCCCCOc1ccc(N=C(N)N)cc1N=C(N)N`, the negative logarithm of the Ki (pKi) in assay [4] is 5.30; in assay [5], 5.50. In addition, in assay [2], the Ki is > 10 µM (inactive). Take `Cc1cc(=O)[nH]c2n[nH]c(-c3cccc(C(F)(F)F)c3)c12`: in assay [1], the pKi is 6.40.

`COc1ccc(C=C2SC(=Nc3ccccc3)NC2=O)cc1OC`: the Ki in assay [2] was > 10 µM (inactive). For the compound `CC(C)(C)c1cc(NC(=O)c2cc3ccccc3s2)n(-c2ccc(OCC(=O)O)cc2)n1`, the pKi in assay [1] is 5.60. In the case of `Cc1c(C#N)c2nc3ccccc3n2c(=O)c1=CO`, the Ki was > 7940 nM (inactive) in assay [5] and > 10 µM (inactive) in assay [2]. In the case of `CC(C)(C)c1cc(NC(=O)Nc2cccc3ccccc23)n(-c2cccc(C(=O)N(CCN)CCO)c2)n1`, the negative logarithm of the Ki (pKi) in assay [1] is 6.20. As for `c1ccc(-c2ncc3ccccn23)cc1`, the pKi in assay [1] is 4.30. `O=c1ncn2nc(Sc3ccc(F)cc3F)ccc2c1-c1c(Cl)cccc1Cl`: the Ki in assay [2] was > 7.94 µM (inactive). `CCN(CCN(C)C)C(=O)c1cccc(-n2nc(C(C)(C)C)cc2NC(=O)Nc2cccc3ccccc23)c1`: the negative logarithm of the Ki (pKi) in assay [1] was 6.10. Regarding `CCn1c(=C(C#N)C(=O)O)sc(=CNc2ccccc2)c1=O`, in assay [2], the negative logarithm of the Ki (pKi) was 5.40. `CCOC(=O)c1cn(-c2ccc(O)cc2C)c2cc(-c3ccncc3)ccc2c1=O`: the negative-log Ki (pKi) in assay [4] was 5.40; in assay [5], 7.50. Moreover, in assay [2], the Ki is > 10 µM (inactive). As for `Oc1cccc(-c2nc(N3CCOCC3)c3oc4ncccc4c3n2)c1`, the Ki in assay [2] is > 7.94 µM (inactive). Consider `CC(C)(C)c1cc(NC(=O)c2cc3ccccc3s2)n(-c2cccc(OCC(=O)O)c2)n1`, for which, in assay [1], the negative-log Ki (pKi) is 6.10. On to `O=C1N=c2ccc(Br)cc2=C1c1sc(=S)[nH]c1O`, for which the negative logarithm of the Ki (pKi) in assay [2] is 5.70. Regarding `CC(C)(C)c1cc(NC(=O)C(=O)c2cccc3ccccc23)n(-c2ccc(OCCC(N)=O)cc2)n1`, the pKi in assay [1] was 6.20. Take `COc1cc2ncn(-c3cc(OCc4ccccc4C(F)(F)F)c(C(N)=O)s3)c2cc1OC`: the negative logarithm of the Ki (pKi) is 6.60 in assay [6] and 8.10 in assay [7]. The Ki was > 7940 nM (inactive) in assay [5] and > 10 µM (inactive) in assay [2].

On to `Cc1cc(=O)[nH]nc1-c1ccc(NC(=O)Nc2cc(C(F)(F)F)ccc2F)c(Cl)c1`, for which the negative-log Ki (pKi) in assay [1] was 7.00.

For the compound `NC(=O)c1ccc2nc(-c3ccc([N+](=O)[O-])o3)cn2c1`, the negative-log Ki (pKi) in assay [1] was 5.50.

In the case of `Nc1ccc2cc(NCCc3ccccc3)cc(Nc3ncccn3)c2n1`, in assay [1], the pKi was 5.60. Take `O=C(O)c1ccccc1Nc1ncnc(Nc2ccc3cn[nH]c3c2)n1`: the negative logarithm of the Ki (pKi) was 6.50 in assay [4] and 6.60 in assay [8]. Also, in assay [5], the Ki was > 5010 nM (inactive). Consider `CNCCOc1cncc(-c2ccc3n[nH]c(C)c3c2)c1`, for which the negative logarithm of the Ki (pKi) in assay [4] is 6.30; in assay [5], 7.70.

For `CC(C)(C)c1cc(NC(=O)C(=O)c2cccc3ccccc23)n(-c2ccc(OCC(=O)NCCO)cc2)n1`, in assay [1], the negative logarithm of the Ki (pKi) was 6.20.
